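Compound exposure: 48 hours, 5 concentrations, 96-well plates. At the TGI there is no net growth.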
Columns and labels:
Assay in all cases: NCI-60 cell line screen, 48 h
ACHN renal = test system: ACHN renal
CCRF-CEM leukemia = test system: CCRF-CEM leukemia
EKVX NSCLC = test system: EKVX NSCLC
IGROV1 ovarian = test system: IGROV1 ovarian
LOX IMVI melanoma = test system: LOX IMVI melanoma
MALME-3M melanoma = test system: MALME-3M melanoma
MOLT-4 leukemia = test system: MOLT-4 leukemia
NCI-H23 lung = test system: NCI-H23 lung
OVCAR-4 ovarian = test system: OVCAR-4 ovarian
OVCAR-5 ovarian = test system: OVCAR-5 ovarian
PC-3 prostate = test system: PC-3 prostate
SF-268 CNS = test system: SF-268 CNS
SF-295 CNS = test system: SF-295 CNS
SK-MEL-2 melanoma = test system: SK-MEL-2 melanoma
SK-MEL-5 melanoma = test system: SK-MEL-5 melanoma
SNB-19 CNS = test system: SNB-19 CNS
SR leukemia = test system: SR leukemia
T-47D breast = test system: T-47D breast
UACC-257 melanoma = test system: UACC-257 melanoma
UACC-62 melanoma = test system: UACC-62 melanoma

Measured: TGI

CC(C)=CCNc1ncnc2nc[nH]c12
> 100 µM: all assays above

Cc1c(C)c2c(c(N)c1C#N)C(=O)N(Nc1ccccc1)C2=O
not listed: NCI-H23 lung
> 100 µM: all other assays above

COc1cc(CNc2ccc3nc4n(c(=O)c3c2)CCCCC4)cc(OC)c1OC
50.8 µM: SK-MEL-5 melanoma
75.8 µM: UACC-257 melanoma
not listed: SNB-19 CNS
> 100 µM: all other assays above

O/C(=C\c1nc2ccccc2nc1/C=C(\O)c1ccc(Cl)cc1)c1ccccc1
40.9 µM: MOLT-4 leukemia
> 100 µM: all other assays above

CCN1CCN(c2ccc(Nc3ccnc4ccc5c(nnn5C)c34)cc2)CC1
24.2 µM: OVCAR-5 ovarian
27.1 µM: UACC-62 melanoma
15.8 µM: SR leukemia
32.6 µM: IGROV1 ovarian
23.6 µM: MALME-3M melanoma
35.1 µM: MOLT-4 leukemia
22.7 µM: SF-295 CNS
43.9 µM: EKVX NSCLC
11.5 µM: ACHN renal
29.4 µM: NCI-H23 lung
24.8 µM: SK-MEL-2 melanoma
13.1 µM: LOX IMVI melanoma
23.1 µM: SF-268 CNS
38.3 µM: T-47D breast
26.1 µM: UACC-257 melanoma
54.7 µM: CCRF-CEM leukemia
17.7 µM: PC-3 prostate
23 µM: SK-MEL-5 melanoma
15.1 µM: SNB-19 CNS
48.2 µM: OVCAR-4 ovarian

CC(C)(C)C(=O)C(C(=O)C(C)(C)C)C(=O)C(C)(C)C
not listed: UACC-62 melanoma
> 100 µM: all other assays above

Reference: PubChem BioAssay (NCI)
